How the values were obtained:
[1] = test system: Mouse T cell; assay: Second screen: IL-2 level of murine primary T cells; assay type: cell-based
Source text: (§1) Two preliminary screens were designed and performed.

[2] = test system: mouse primary CD8^+ T cells; assay: Phospho antibody array; assay type: cell-based
Experimental: The quantification for pixel density in each spot of the array was carried out by subtracting background signals from the spot intensity using software ImageJ (ImageJ, RRID: SCR_003070). Please also refer to Resources Table and Table 6 for more details.

[3] = test system: mouse CD8^+ T cells; assay: RNA-sequencing of CD8+ T cells with or without TVA (also siNTC / siCreb1); assay type: cell-based; settings: 20 μM TVA, 24 h
[4] = test system: human primary T cell; assay: IL-2 production of human primary T cells; assay type: cell-based; settings: 20 μM TVA (FIG. 17B)
Source text: as §1

[5] = Extraction and quantification of TVA levels by NMR (mouse serum and TIF); assay type: in vivo; settings: B16F10 tumor bearing mice, TVA-enriched diet; 1H NMR
[6] = test system: mouse primary CD8^+ T cells; assay: In vitro function of activated mouse primary CD8+ T cells (cytokines, Ki-67, apoptosis, p-CREB); assay type: cell-based
Experimental: For experiments with live/dead criteria, cells were first stained with Fixable Viability Dyes (FVD) (Thermo Fisher Scientific) according to the manufacturer's instructions. Subsequent surface marker staining was performed in Flow Cytometry Staining Buffer (Thermo Fisher Scientific). Intracellular staining for flow panels containing nuclear proteins was performed using the eBioscience FoxP3/Transcription Factor Staining Buffer Set (Thermo Fisher Scientific) according to the manufacturer's instructions. For intracellular staining of cytoplasmic proteins, the Fixation/Permeabilization Solution Kit (BD Biosciences) was used according to the manufacturer's instructions. […] The cell pellets were washed again with FACS buffer, centrifuged at 300×g for 5 minutes, and incubated with antibodies in FACS buffer for 45 minutes-1 hour at room temperature. […] Treatment with sulfosuccinimidyl oleate (SSO) was performed by incubating cells with 100 μM SSO for 24 hours.

[7] = test system: mouse primary CD8^+ T cells; assay: cAMP level; assay type: cell-based; settings: 20 μM TVA; 0, 20 minutes, 40 minutes, 2 hours
[8] = test system: human T cell and CD8^+ T cell treated with rhPD-L1; assay: rhPD-L1 exhaustion assay of human T cells and CD8+ T cells; assay type: cell-based; settings: 20 μM TVA; 0.5 μg/mL rhPD-L1, 72 hours; IL-2, TNF-α
[9] = test system: anti-human CD19-CD28z-GFP CAR T cells; assay: CAR-T cell expansion assay; assay type: cell-based; settings: 20 μM TVA
[10] = test system: colon tumors; assay: Colon tumorigenesis in Apc+/fl; Cdx-2P-Cre-NLS mice; assay type: in vivo, mouse; settings: gavage TVA 35 mg/kg bw daily×5 days for 4 wks; lipid rich diet
[11] = test system: tumor infiltrating immune cells; assay: Tumor immune cell analysis (macrophages, CD8, Tregs, DCs); assay type: in vivo; settings: TVA treatment
[12] = test system: influenza virus; assay: Influenza virus challenge of mice; assay type: in vivo, mouse
Source text: Control mice were born by mothers on normal diet, followed by normal milk feeding and normal diet since weaning.

[13] = test system: mouse CD8^+ T cells; assay: KAS-seq, mouse CD8+ T cells; assay type: cell-based; settings: 20 μM TVA, 20 min-2 h
Experimental: 500 mM N3-kethoxal was then supplemented into the media followed by brief, vigorous shaking to fully homogenize the solution. The 6-well plates were then moved into the cell incubator (37° C., 5% CO2) for 10 minutes to promote labeling of genomic single-stranded DNA (ssDNA). Cell suspensions were then transferred to 15 mL conical tubes and centrifuged at 300×g for 5 minutes at 4° C. The supernatant media was discarded, and genomic DNA was then extracted. […] Dual index libraries were constructed for high throughput sequencing using an Accel-NGS Methyl-seq DNA library kit and then sequenced at the Genomics Facility (University of Chicago) via Illumina NovaSeq 6000 (SP flowcell, 100 bp cassette) in two separate runs. […] M. musculus and H. sapiens CD8^+ T cell KAS-seq data were assessed separately.

[14] = test system: Mouse CD4^+ T cell; assay: Second screen: IL-2 level of mouse CD4+ T cells
[15] = test system: Mouse CD8^+ T cell; assay: Second screen: IL-2 level of mouse CD8+ T cells

Compound: CCCCCC/C=C/CCCCCCCCCC(=O)O [TVA, trans-vaccenic acid]
- Mouse T cell IL-2 level changes after treatment [1]: 183.5%
- IL-2 production from mouse primary T cells ([1]; 20 μM TVA (FIG. 17A)): enhances IL-2 production
- p-CREB level (phospho-antibody array) ([2]; 40 min, 2 h and 6 h post-TVA treatment, reduces at 24 h): Increased p-CREB level
- p-STAT1 level (phospho-antibody array) ([2]; 2 h and 24 h TVA treatment): elevated
- phosphorylation level of AKT (p-AKT) ([2]; 2 h post-TVA treatment): reduced phosphorylation level of AKT (p-AKT)
- phosphorylation level of STAT3 (p-STAT3) ([2]; 2 h post-TVA treatment): increased phosphorylation level of STAT3 (p-STAT3)
- p-AKT level ([2]; 24 h post-TVA treatment): increased p-AKT level at 24 h
- gene expression (RNA-seq, GSEA) [3]: enhances expression of the genes enriched in effector CD8^+ T cell function, E2F and MYC pathways
- IL-2 production from human primary T cells [4]: enhances IL-2 production
- average TVA level in tumor interstitial fluid (TIF) [5]: ~48 µM
- average serum TVA level [5]: ~386 µM
- TVA wash-off assay (TVAc vs TVAw) ([6]; 20 μM TVA 48 hours vs 24 hours then medium without TVA): effects are reversible
- p-CREB level in CD8+ T cells, increasing concentrations ([6]; 8-Bromo-cAMP 0.01-100 μM or TVA 10-1000 μM, 24 hours): dose-dependent manner
- reversal of SCFA-dependent suppression on CD8+ T cells ([6]; TVA 20 μM with SCFA agonists): able to reverse SCFA-dependent suppression on CD8^+ T cells
- phosphorylation level of Lck (p-Lck) in CD8+ T cells ([6]; TVA treatment): does not alter phosphorylation level of Lck
- phosphorylation of CREB in CD8+ T cells ([6]; TVA treatment): promotes phosphorylation of CREB
- TNF-α and IFN-γ expression of primary CD8+ T cells ([6]; TVA treatment in vitro): increased expression of TNF-α and IFN-γ
- suppression of CD8+ T cells by pre-treatment with 20 mM acetate (acetate first) ([6]; acetate 12 hours, then TVA 20 μM 12 hours): can be reversed by TVA at 20 μM
- TVA level sufficient to reverse suppression of CD8+ T cells by acetate ([6]; acetate at 20 mM, TNF-α): ≤ 2 µM
- cAMP levels in CD8+ T cells [7]: elevates cAMP levels
- exhaustion of primary human bulk T cells and CD8+ T cells treated with recombinant PD-L1 [8]: significantly reverses exhaustion
- in vitro expansion of CAR T cells ([9]; 3 lymphoma patients with age between 42 and 47): improves in vitro expansion
- in vitro expansion of CAR T cells ([9]; elder patient): do not respond to TVA treatment
- tumorigenesis and tumor progression (tumor multiplicity, pathology) [10]: Suppresses Tumorigenesis and Tumor Progression
- anti-tumor immunity (CD8+ T cells, dendritic cells, Treg, TAMs) [11]: enhances anti-tumor immunity
- survival after influenza virus challenge ([12]; TVA exposure during fetal and infant stages, TVA diet since weaning): significantly increased survival
- immune responses to viral exposure, male vs female ([12]; TVA mice): better immune responses to viral exposure compared to female TVA mice
- GO enrichment of altered gene bodies (KAS-seq) [13]: G-protein coupled receptor (GPCR) activities among the top-enriched ontologies
- Mouse CD4^+ T cell IL-2 level changes after treatment [14]: 155.6%
- Mouse CD8^+ T cell IL-2 level changes after treatment [15]: 193.6%

From patent publication US20250221953A1 (The University of Chicago, priority 2022, published 2025)
